In brackets after ≈: the same amount, converted by molar mass. Read-outs that look alike come from different tables or passages of the source. No end group written: not given here.
What was measured:
Candida albicans = format: cell-based
Method: (§1) Bacteria were cultured aerobically in Mueller-Hinton broth (MHB), Brain and Heart Infusion broth (BHIB), or BHIB supplemented with 1% lysed horse blood and plated on Tryptone Soy Agar (TSA) plates containing 5% defibrinated sheep blood. […] Culture conditions for each organism are included in Table S1. Organisms were subcultured for 2 hrs to generate mid-logarithmic growth cultures for use as inoculates in experiments. Media reagents were obtained from Becton, Dickinson and Company (Sparks, MD).
(§2) Colonies from agar were transferred by sterile loop to growth media and incubated for 2 hrs at 37°C to achieve a McFarland density of 0.5. Bacteria inoculum cell densities were normalized to 5×10^5 cells/ml immediately before use photometrically and subsequently confirmed by colony count. Inoculum of C. albicans contained a cell density of 2.5×10^3 CFU/ml.
(§3) Bulk powdered peptides were first dissolved in 30% trifluoroethanol (TFE) at 1 mg/ml. Five hundred microliter aliquots of the stock solutions were lyophilized and stored under nitrogen at −20°C. Stock solutions at 2 mg/ml were prepared the day of experimentation from the peptide films by solubilizing a second time in either water or 20% TFE. Aβ stocks prepared in water were sonicated and insoluble peptide aggregates pelleted by centrifugation (10 min×16,000 g). Peptide concentrations in stock solutions were determined immediately before use by bicinchoninic acid (BCA) protein assay. […] For MIC experiments, peptides were serially diluted into growth media. For other experiments stocks were diluted into required working buffers. Experiments included controls for peptide buffer vehicle alone.
(§4) Peptide antimicrobial activity was determined as minimal inhibitory concentration (MIC). Experiments identified peptide MIC by broth microdilution susceptibility test in conjunction with CFU and alamar blue assays. Inoculum containing mid-logarithmic phase cells was dispensed into the wells of polypropylene 96-well plates (Fisher, Pittsburgh, PA) containing seven two-fold dilutions of test peptide in growth media. Plates were then incubated aerobically overnight (12 to 18 hrs) at 37°C. Peptide MIC was taken as the lowest concentration able reduce cell growth by CFU and alamar blue assays by at least two-fold and which correlated with the visible loss of a growth button on the bottom of microtiter wells. Experiments were repeated a minimum of three times for each organism, and tests included at least three replicates for each assay condition. Experiments included control serial dilutions of buffer vehicle alone.
(§5) Serial dilutions of incubants were prepared and streaked onto the surface of agar. The agar plates were then incubated overnight at 37°C and colonies forming units counted.
(§6) Microbial growth was determined by following the reduction of the synthetic metabolic substrate resazurin (alamar blue) to a fluorescent product by respiratory enzymes in living cells. Alamar blue assay is used in high throughput screens for antimicrobial agents and is available commercially in kit form from Invitrogen. Microbial growth in experiments was assayed with alamar blue kits according to the manufacturer's instructions. […] Fluorescence signal was measured at excitation of 530 nm and emission at 590 nm.

[1] = test system: Staphylococcus epidermidis; format: cell-based
Method: as §1, §2, §3, §4, §5, §6

Streptococcus salivarius = format: cell-based
Method: as §1, §2, §3, §4, §5, §6

Listeria monocytogenes = format: cell-based
Method: as §1, §2, §3, §4, §5, §6

Streptococcus pyogenes = format: cell-based
Method: as §1, §2, §3, §4, §5, §6

Escherichia coli = format: cell-based
Method: as §1, §2, §3, §4, §5, §6

Streptococcus pneumoniae = format: cell-based
Method: as §1, §2, §3, §4, §5, §6

Pseudomonas aeruginosa = format: cell-based
Method: as §1, §2, §3, §4, §5, §6

Streptococcus agalactiae = format: cell-based
Method: as §1, §2, §3, §4, §5, §6

Staphylococcus aureus = format: cell-based
Method: as §1, §2, §3, §4, §5, §6

Enterococcus faecalis = format: cell-based
Method: as §1, §2, §3, §4, §5, §6

Streptococcus mitis = format: cell-based
Method: as §1, §2, §3, §4, §5, §6

[2] = test system: panel of clinically relevant organisms; test: MIC against panel of clinically relevant organisms, recombinant versus synthetic peptide; format: cell-based; conditions: data not shown
Method: Aβ and LL-37 peptides were prepared and purified by Dr. James I. Elliott at Yale University (New Haven, CT) using solid-phase peptide synthesis. Scrambled LL-37 peptide was from AnaSpec (San Jose, CA). […] Findings for recombinant and SPPS prepared peptides were equivalent in all experiments.
as §4

[3] = clinical trial in AD patients; cited from earlier work
E. faecalis = test: Growth curves of E. faecalis with peptide, CFU count; format: cell-based, Enterococcus faecalis; conditions: 25 µg/ml peptide; growth with time by CFU; six experiments, four replicates (Figure 1A)
Method: as §5

MIC (Candida albicans; pH 7) | MIC [1] | MIC (Streptococcus salivarius) | MIC (Listeria monocytogenes) | MIC (Streptococcus pyogenes) | MIC (Escherichia coli) | MIC (Streptococcus pneumoniae) | MIC (Pseudomonas aeruginosa) | MIC (Streptococcus agalactiae) | MIC (Staphylococcus aureus) | MIC (Enterococcus faecalis) | MIC (Streptococcus mitis) | Compound | further results
0.78 µg/mL | 3.13 µg/mL | >50 µg/mL | 6.25 µg/mL | >50 µg/mL | 3.13 µg/mL | 6.25 µg/mL | >50 µg/mL | >50 µg/mL | 12.5 µg/mL | 3.13 µg/mL | >50 µg/mL | DAEFGHDSGFEVRHQKLVFFAEDVGSNKGAIIGLMVGGVVIA [roAβ42] | –
– | – | – | – | – | – | – | – | – | – | – | – | recombinant Aβ42: Recombinant human Aβ42 purchased from rPeptide | Antimicrobial activity compared with synthetic Aβ42 [2]: Equivalent findings
– | – | – | – | – | – | – | – | – | – | – | – | C[C@@H](C(=O)O)c1ccc(-c2ccccc2)c(F)c1 [tarenflurbil] | Rates of infection in patients receiving the drug [3]: significantly increased rates of infection
– | – | – | – | – | – | – | – | – | – | – | – | CC[C@H](C)[C@H](NC(=O)[C@H](CCCCN)NC(=O)[C@H](CCC(=O)O)NC(=O)[C@H](CCCCN)NC(=O)[C@H](CO)NC(=O)[C@H](CCCCN)NC(=O)[C@H](CCCNC(=N)N)NC(=O)[C@H](Cc1ccccc1)NC(=O)[C@H](Cc1ccccc1)NC(=O)[C@H](CC(=O)O)NC(=O)CNC(=O)[C@H](CC(C)C)NC(=O)[C@@H](N)CC(C)C)C(=O)NCC(=O)N[C@@H](CCCCN)C(=O)N[C@@H](CCC(=O)O)C(=O)N[C@@H](Cc1ccccc1)C(=O)N[C@@H](CCCCN)C(=O)N[C@@H](CCCNC(=N)N)C(=O)N[C@H](C(=O)N[C@H](C(=O)N[C@@H](CCC(N)=O)C(=O)N[C@@H](CCCNC(=N)N)C(=O)N[C@H](C(=O)N[C@@H](CCCCN)C(=O)N[C@@H](CC(=O)O)C(=O)N[C@@H](Cc1ccccc1)C(=O)N[C@@H](CC(C)C)C(=O)N[C@@H](CCCNC(=N)N)C(=O)N[C@@H](CC(N)=O)C(=O)N[C@@H](CC(C)C)C(=O)N[C@H](C(=O)N1CCC[C@H]1C(=O)N[C@@H](CCCNC(=N)N)C(=O)N[C@H](C(=O)N[C@@H](CCC(=O)O)C(=O)N[C@@H](CO)C(=O)O)[C@@H](C)O)C(C)C)[C@@H](C)CC)C(C)C)[C@@H](C)CC [LL-37] | MIC (Candida albicans; Candida albicans ATCC 10231, RPMI-1640 with 2% glucose, MOPS pH 7.0, inoculum 2.5×10^3 CFU/ml, mid-logarithmic phase, overnight (12 to 18 hrs) 37°C, visual inspection confirmed by alamar blue and CFU, repeated at least three times): 6.25 µg/mL (≈ 1.39 µM); MIC ([1]; Staphylococcus epidermidis ATCC 12228, inoculum 5×10^5 cells/ml, mid-logarithmic phase, overnight (12 to 18 hrs) 37°C, visual inspection confirmed by alamar blue and CFU, repeated at least three times): 25 µg/mL (≈ 5.56 µM); MIC (Streptococcus salivarius; Streptococcus salivarius ATCC 13419, inoculum 5×10^5 cells/ml, mid-logarithmic phase, overnight (12 to 18 hrs) 37°C, visual inspection confirmed by alamar blue and CFU, repeated at least three times): 50 µg/mL (≈ 11.1 µM); MIC (Listeria monocytogenes; Listeria monocytogenes ATCC 19112, inoculum 5×10^5 cells/ml, mid-logarithmic phase, overnight (12 to 18 hrs) 37°C, visual inspection confirmed by alamar blue and CFU, repeated at least three times): 25 µg/mL (≈ 5.56 µM); MIC (Streptococcus pyogenes; Streptococcus pyogenes ATCC 19615, inoculum 5×10^5 cells/ml, mid-logarithmic phase, overnight (12 to 18 hrs) 37°C, visual inspection confirmed by alamar blue and CFU, repeated at least three times): 6.25 µg/mL (≈ 1.39 µM); MIC (Escherichia coli; Escherichia coli ATCC 25922, inoculum 5×10^5 cells/ml, mid-logarithmic phase, overnight (12 to 18 hrs) 37°C, visual inspection confirmed by alamar blue and CFU, repeated at least three times): 1.56 µg/mL (≈ 0.347 µM); MIC (Streptococcus pneumoniae; Streptococcus pneumoniae ATCC 49619, inoculum 5×10^5 cells/ml, mid-logarithmic phase, overnight (12 to 18 hrs) 37°C, visual inspection confirmed by alamar blue and CFU, repeated at least three times): 1.56 µg/mL (≈ 0.347 µM); MIC (Pseudomonas aeruginosa; Pseudomonas aeruginosa ATCC 27853, inoculum 5×10^5 cells/ml, mid-logarithmic phase, overnight (12 to 18 hrs) 37°C, visual inspection confirmed by alamar blue and CFU, repeated at least three times): 6.25 µg/mL (≈ 1.39 µM); MIC (Streptococcus agalactiae; Streptococcus agalactiae ATCC 12386, inoculum 5×10^5 cells/ml, mid-logarithmic phase, overnight (12 to 18 hrs) 37°C, visual inspection confirmed by alamar blue and CFU, repeated at least three times): 12.5 µg/mL (≈ 2.78 µM); MIC (Staphylococcus aureus; Staphylococcus aureus ATCC 25923, inoculum 5×10^5 cells/ml, mid-logarithmic phase, overnight (12 to 18 hrs) 37°C, visual inspection confirmed by alamar blue and CFU, repeated at least three times): 6.25 µg/mL (≈ 1.39 µM); MIC (Enterococcus faecalis; Enterococcus faecalis ATCC 29212, inoculum 5×10^5 cells/ml, mid-logarithmic phase, overnight (12 to 18 hrs) 37°C, visual inspection confirmed by alamar blue and CFU, repeated at least three times): 6.25 µg/mL (≈ 1.39 µM); MIC (Streptococcus mitis; Streptococcus mitis ATCC 6249, inoculum 5×10^5 cells/ml, mid-logarithmic phase, overnight (12 to 18 hrs) 37°C, visual inspection confirmed by alamar blue and CFU, repeated at least three times): 6.25 µg/mL (≈ 1.39 µM); Action on E. faecalis growth (bacteriostatic or bactericidal) (E. faecalis): potent bactericidal activity
>25 µg/mL | >50 µg/mL | >50 µg/mL | >50 µg/mL | >50 µg/mL | >50 µg/mL | 50 µg/mL | >50 µg/mL | >50 µg/mL | >50 µg/mL | 50 µg/mL | >50 µg/mL | AIVVGGVMLGIIAGKNSGVDEAFFVLKQHHVEYGSDHRFEAD [reAβ42, Aβ42-1] | –

— publication PMC2831066, “The Alzheimer's Disease-Associated Amyloid β-Protein Is an Antimicrobial Peptide” (PLoS ONE, 2010)
